Marks after values point to notes of the source that are not given here.
Tests used:
Type in all cases: cell-based, human
[1] = system: BAL cells (Be-specific BAL T cells); assay: Beryllium lymphocyte proliferation test (BeLPT), BAL cells; conditions: for Peak CBD BAL cell BeLPT stimulation index, median (minimum, maximum): CBD BAL cells, n = 4, 10^-10 M Be-ferritin, 10^-4 M BeSO4, 10^-4 M Al2(SO4)3, ferritin
[2] = system: BAL lymphocytes from CBD and BeS subjects; assay: Apoptosis of BAL lymphocytes
[3] = system: BAL macrophages from CBD subjects; assay: Apoptosis (nuclear fragmentation) of CBD BAL macrophages; conditions: 100 μM BeSO4, 50 μg Be-ferritin adduct containing 270 picomoles of Be, or ferritin alone, mean±SEM
Procedure: FIG. 1. illustrates an exemplary histogram of (a) TUNEL (assay for DNA strand break) positive nuclear staining of CBD BAL macrophages after exposure to 100 μM BeSO4 and (b) nuclear fragmentation in CBD BAL macrophages exposed to Be-ferritin containing 270 picomoles of Be. (c) The percent (mean %±SEM) of CBD BAL cells (n=8) with TUNEL positive nuclei (black) or with fragmented nuclei (open) after exposure to 100 μM BeSO4. *p<0.05 versus the corresponding unstimulated control.
Cell Cultivation: Bronchoalveolar lavage (BAL) was performed as previously described. […] BAL macrophages and T cells were separated by an adherence method known in the art.

Molecule | BAL BeLPT SI, median (minimum, maximum) ([1]; BeS subjects, peak SI after BeSO4 stimulation) | Peak CBD BAL cell BeLPT stimulation index, median (minimum, maximum) [1] | Induction of apoptosis of BAL lymphocytes [2] | BAL macrophages with apoptotic fragmented nuclei [3]
O=S(=O)([O-])[O-].[Be+2] [BeSO4, Beryllium sulfate] | 1.9 (1.2, 46) | 18.5 (3.7, 124)** | did not induce | 50%±6%
ferritin | – | 1.1 (0.8, 1.3) | – | < 3%

From US20070014723A1, “Methods and compositions for 10Beryllium complex probes” (priority 2005, published 2007)
